Assay results published in article PMC6471066, “Spiralyde A, an Antikinetoplastid Dolabellane from the Brown Alga Dictyota spiralis” (Marine Drugs, 2019).

Tests used:
[1] = test system: promastigotes of Leishmania amazonensis (MHOM/BR/77/LTB0016); assay: Leishmanicidal capacity assay (Alamar Blue); assay type: cell-based; conditions: promastigote form; for IC50: Leishmania amazonensis
Protocol: (§1) Bioassay-guided fractionation of the crude extract yielded six dolabellanes 1–6. Their in vitro antiprotozoal activity was evaluated applying serial dilutions of the compounds, and IC50 were calculated using the Alamar Blue reagent reaction.
(§2) The activity of the crude extract, different subfractions and isolated compounds were evaluated against promastigotes of Leishmania amazonensis (MHOM/BR/77/LTB0016) and epimastigotes Trypanosoma cruzi (Y strain). Cytotoxicity assay of the active compounds was tested against the murine macrophage J774.A1 cell line (ATCC # TIB-67).
Logarithmic phase cultures of Leishmania amazonensis were used for experimental purposes, and the in vitro susceptibility assay was performed in sterilized 96-well plates. 10^6/well parasites were added to wells containing different concentration of the drug to be tested. Percentages of inhibition, 50% inhibitory concentrations (IC50) for active compounds were calculated by linear regression analysis using the Alamar Blue method.

[2] = test system: epimastigotes Trypanosoma cruzi (Y strain); assay: Trypanocidal capacity assay (Alamar Blue); assay type: cell-based; conditions: epimastigote form; for IC50: 96 h
Protocol: as §1, §2
The activity was evaluated in vitro against epimastigote stage of Trypanosoma cruzi. Different concentrations of fractions and compounds were incubated in 96 wells plate for 96 h with a density of 10^5 parasite/well. 10% of Alamar blue was added to each well and the IC50 was calculated. All assays have been realized in triplicate.

[3] = Cytotoxicity assay (Alamar Blue); assay type: cell-based; conditions: mouse, J774.A1 macrophage cell line (ATCC TIB-67), murine macrophage J774.A1
Protocol: as §2, with “TIB-67).[…]” for “TIB-67).”

[4] = test system: promastigote form of L. amazonensis; parameters: method as in PMID 22970332; conditions: promastigotes; cited from earlier work

Work on `C=C(C)[C@H]1CC(=O)[C@]2(C)C/C=C(\C)CC/C=C(\C)CC[C@@H]12` [compound 5, (1R,3E,7E,11S,12S)-14-Oxo-3,7,18-dolabellatriene] yielded an IC50 [1] of over 100 µM and an IC50 ([2]; Trypanosoma cruzi) of over 100 µM.
`C=C(C)C1CCC2(C)CC=C(C)CCC=C(C=O)C(O)CC12` (stereo not shown) [Spiralyde A (1), Spiralyde A] gave an IC50 [1] of 15.5 ± 0.26 µM, an IC50 ([2]; Trypanosoma cruzi) of 5.62 ± 2.48 µM and a CC50 at 24 h [3] of 23.4 ± 5.62 µM.
For `CCCCCCCCCCCCCCCCOP(=O)([O-])OCC[N+](C)(C)C` [Miltefosine, reference compound], the CC50 at 24 h [3] was 72.2 ± 3.06 µM.
`O=C(Cn1ccnc1[N+](=O)[O-])NCc1ccccc1` [Benznidazole, reference compound] showed an IC50 ([2]; Trypanosoma cruzi) of 6.95 µM, an IC50 [2] of 6.94 ± 1.94 µM and a CC50 at 24 h [3] of 400 ± 4 µM.
With `C=C(C)[C@H]1CC(=O)[C@]2(C)C[C@@H]3O[C@@]3(C)CC/C=C(\C)CC[C@@H]12` [compound 4, (1R,3S,4S,7E,11S,12S)-3,4-Epoxy-14-oxo-7,18-dolabelladiene] the IC50 [1] was over 100 µM, the “antikinetoplastid activity against Leishmania amazonensis (in words)” value [1] was “inactive” and the IC50 ([2]; Trypanosoma cruzi) was over 100 µM. For the same compound, the “antikinetoplastid activity against Trypanosoma cruzi (in words)” value [2] was “inactive”.
For `C=C(C)[C@H]1C[C@H](O)[C@]2(C)C[C@@H]3O[C@@]3(C)CC/C=C(\C)CC[C@@H]12` [compound 3, (1R,3S,4S,7E,11S,12S,14S)-3,4-Epoxy-14-hydroxy-7,18-dolabelladiene], the IC50 [1] was over 100 µM, the “antikinetoplastid activity against Leishmania amazonensis (in words)” value [1] was “inactive” and the IC50 ([2]; Trypanosoma cruzi) was over 100 µM. The “antikinetoplastid activity against Trypanosoma cruzi (in words)” value [2] was “inactive”.
In the case of `C[C@H]1/C=C/[C@@]2(C)CC[C@@H](C(C)(C)O)[C@@H]2[C@@H](O)C[C@](C)(O)/C=C/C1` [dolabelladienetriol (9), dolabelladienetriol], the IC50 [4] is given as 44 µM.
With `C=C(C)C1CC(=O)C2(C)CC=C(C)CCC=C(C)CCC12` [compound 6, (1R,3Z,7E,11S,12S)-14-Oxo-3,7,18-dolabellatriene] the IC50 [1] was over 100 µM and the IC50 ([2]; Trypanosoma cruzi) was over 100 µM.
For `C=C(C)[C@H]1CC[C@]2(C)C[C@@H]3O[C@@]3(C)CC/C=C(\C)CC[C@@H]12` [compound 2, (1R,3S,4S,7E,11S,12S)-3,4-Epoxy-7,18-dolabelladiene], the IC50 [1] was 36.8 ± 5.2 µM, the “antikinetoplastid activity against Leishmania amazonensis (in words)” value [1] was “moderate activity” and the IC50 ([2]; Trypanosoma cruzi) was 35.3 ± 4.09 µM. For the same compound, the “antikinetoplastid activity against Trypanosoma cruzi (in words)” value [2] was “moderate activity” and the CC50 at 24 h [3] was 69.98 ± 0.14 µM.
